These results are taken from patent US9353141B2, “Galectoside inhibitors of galectins” (GALECTO BIOTECH AB, priority 2012, dated 2016).

What all share (test): Fluorescence polarization-based galectin inhibition assay
What all share (assay type): binding
(In fluorescence polarisation assays a small probe gives low polarisation when free and higher when bound to something large.)

Assay [1] deals with galectin-9 (N-terminal domain) (Homo sapiens, UniProt O00182). Conditions: 20° C., read-out: Calculated Kd Galectin 9 (N-terminal domain). An excerpt: (§1) Identification of the substances was made by HRMS (Micromass Q-tof micro) and NMR (Bruker Ultrashield 400 plus, 400 MHz). Chemical shifts are reported downfield from Me4Si using residual […] (7.26 ppm) or CHD2OD (3.35 ppm) as reference. Chemical shifts and coupling constants were obtained from ^1H-NMR and proton resonances were assigned from COSY experiments. Purification was made by RF-HPLC (Beckman, system gold) or flash chromatography, using silica gel (Davisil 35-70 μm, 60 Å). Reactions were followed by TLC (Aluminum sheet, silica gel 60 F254) visualized with UV light, H2SO4 (aq) or an iso-vanillin/H2SO4/EtOH development solution. THF and Et2O were dried over sodium/benzophenone and distilled. CH2Cl2 was dried by molecular sieves (4 Å, 1.6 mm). Other solvents and reagents were commercially available and used without further purifications. Fluorescence polarization experiments were performed on a PolarStar instrument (BMG, Offenburg; Germany). Evaluation of 20-34 as inhibitors of galectins was performed by use of fluorescence polarization as described in the literature (Sorme et al., 2003a, 2004). Galectin concentrations and fluorescent probe choice and concentrations were as described in Cumpstey et al. 2005a, except for galectin-3 for which the probe tdga-probe described in Salomonsson et al. 2010 was used at 20 nM together with galectin-3 at 200 nM concentrations. Each inhibitor was tested in duplicate at several concentrations between 4 and 0.25 μM. All fluorescence polarization experiments were conducted at 20° C., except galectin-7 for which experiments were conducted at 0° C.
Chain of galectin-9 (N-terminal domain) (O00182 17-148 limits assumed, species assumed): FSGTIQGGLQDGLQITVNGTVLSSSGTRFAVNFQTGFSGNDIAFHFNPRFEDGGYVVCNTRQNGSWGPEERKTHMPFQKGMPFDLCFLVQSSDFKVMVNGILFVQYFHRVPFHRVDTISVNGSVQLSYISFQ

Assay [2] concerns the target T1, galectin-4 (N-terminal domain) (Homo sapiens, UniProt P56470).
T1 sequence (P56470 19-150 limits assumed): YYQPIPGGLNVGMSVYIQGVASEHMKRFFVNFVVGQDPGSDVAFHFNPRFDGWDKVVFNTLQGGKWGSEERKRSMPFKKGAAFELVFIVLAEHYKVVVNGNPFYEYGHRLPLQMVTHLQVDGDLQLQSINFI
Conditions: fluorescence polarization, 20° C.; read-out: Calculated Kd Galectin 4 (N-terminal domain).
Source text: as §1

Assay [3] concerns the target T2, galectin-8 (N-terminal domain) (Homo sapiens, UniProt O00214).
T2 sequence (O00214 19-152 limits assumed): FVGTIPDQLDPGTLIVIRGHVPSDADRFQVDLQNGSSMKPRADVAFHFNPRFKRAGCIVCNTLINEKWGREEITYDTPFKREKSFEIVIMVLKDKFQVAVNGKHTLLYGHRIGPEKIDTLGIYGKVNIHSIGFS
Conditions: 20° C., read-out: Calculated Kd Galectin 8 (N-terminal domain).
Source text: as §1

Assay [4] concerns the target galectin-3 (Homo sapiens, UniProt P17931). Particulars: 20° C., tdga-probe 20 nM, galectin-3 200 nM, read-out: Calculated Kd Galectin 3.
Source text: as §1

Assay [5] concerns the target T3, galectin-4 (C-terminal domain) (Homo sapiens, UniProt P56470).
T3 sequence (P56470 194-323 limits assumed): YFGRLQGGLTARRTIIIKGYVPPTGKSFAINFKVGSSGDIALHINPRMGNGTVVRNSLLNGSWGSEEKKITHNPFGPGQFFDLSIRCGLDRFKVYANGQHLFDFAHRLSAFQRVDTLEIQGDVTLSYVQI
Particulars: 20° C., read-out: Calculated Kd Galectin 4 (C-terminal domain).
Source text: as §1

The target in assay [6] is galectin-1 (Homo sapiens, UniProt P09382). Particulars: 20° C., read-out: Calculated Kd Galectin 1.
Chain of galectin-1 (P09382 whole entry, species assumed): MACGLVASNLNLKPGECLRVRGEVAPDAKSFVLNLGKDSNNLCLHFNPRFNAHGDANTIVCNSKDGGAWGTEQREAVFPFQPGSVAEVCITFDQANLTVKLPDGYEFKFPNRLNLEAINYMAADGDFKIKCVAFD
Source text: as §1

The target of assay [7] is galectin-9 (C-terminal domain) (Homo sapiens, UniProt O00182). Particulars: 20° C., read-out: Calculated Kd Galectin 9 (C-terminal domain).
Chain of galectin-9 (C-terminal domain) (O00182 227-355 limits assumed, species assumed): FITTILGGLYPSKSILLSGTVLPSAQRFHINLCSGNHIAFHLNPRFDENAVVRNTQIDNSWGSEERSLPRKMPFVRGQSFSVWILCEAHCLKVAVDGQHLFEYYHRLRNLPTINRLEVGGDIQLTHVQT
Source text: as §1

Assay [8] deals with galectin-7 (Homo sapiens, UniProt P47929). Particulars: 0° C., read-out: Calculated Kd Galectin 7.
Chain of galectin-7 (P47929 whole entry, species assumed): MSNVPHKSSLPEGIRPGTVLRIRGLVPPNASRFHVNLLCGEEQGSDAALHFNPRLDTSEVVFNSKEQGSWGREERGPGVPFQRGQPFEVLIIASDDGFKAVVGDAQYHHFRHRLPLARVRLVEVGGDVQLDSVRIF
Source text: as §1

Where only a bound is given, the exact number is not on record here.

Chain of galectin-3 (P17931 whole entry, species assumed): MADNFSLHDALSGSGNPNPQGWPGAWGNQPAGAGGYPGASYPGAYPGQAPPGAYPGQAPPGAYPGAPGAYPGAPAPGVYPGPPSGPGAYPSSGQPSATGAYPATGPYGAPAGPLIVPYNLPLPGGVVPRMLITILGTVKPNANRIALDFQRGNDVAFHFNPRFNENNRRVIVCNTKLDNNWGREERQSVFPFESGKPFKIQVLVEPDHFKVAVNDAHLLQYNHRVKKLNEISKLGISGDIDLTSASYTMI

`O=c1oc2cc(O)ccc2cc1COC1C(O)[C@H](S[C@@H]2OC(CO)[C@H](O)C(OCc3cc4ccc(O)cc4oc3=O)C2O)OC(CO)[C@@H]1O` (stereo partly drawn) [Compound 23, bis-{3-O-[(7-hydroxy-2H-1-benzopyran-2-on-3-yl)-methyl]-β-D-galactopyranosy}sulfane]: the Kd was 1.5 µM in assay [1]; 32 µM in assay [2]; 40 µM in assay [3]; 0.076 µM in assay [4]; above 300 µM in assay [5]; 3.9 µM in assay [6].

Regarding `O=c1oc2ccc(O)cc2cc1COC1C(O)[C@H](S[C@@H]2OC(CO)[C@H](O)C(OCc3cc4cc(O)ccc4oc3=O)C2O)OC(CO)[C@@H]1O` (stereo partly drawn) [Compound 24, bis-{3-O-[(6-hydroxy-2H-1-benzopyran-2-on-3-yl)-methyl]-β-D-galactopyranosy}sulfane], the Kd in assay [1] was 8.9 µM; in assay [2], 180 µM; in assay [3], 140 µM; in assay [4] it was 0.15 µM; in assay [5], above 300 µM; in assay [6], 20 µM.

As for `O=c1oc2ccc3ccccc3c2cc1CO[C@H]1[C@@H](O)[C@@H](CO)O[C@@H](S[C@@H]2O[C@H](CO)[C@H](O)[C@H](OCc3cc4c(ccc5ccccc54)oc3=O)[C@H]2O)[C@@H]1O` [Compound 25, bis-{3-O-[(3H-naphtho[2,1-b]pyran-3-on-2-yl)-methyl]-β-D-galactopyranosyl}sulfane], the Kd in assay [1] was 4.7 µM; in assay [2] it was 110 µM; in assay [3], above 300 µM; in assay [4] it was 0.51 µM; in assay [5], above 300 µM; in assay [6], 22 µM.

Regarding `CC(C)(C)c1ccc2oc(=O)c(COC3C(O)[C@H](S[C@@H]4OC(CO)[C@H](O)C(OCc5cc6cc(C(C)(C)C)ccc6oc5=O)C4O)OC(CO)[C@@H]3O)cc2c1` (stereo partly drawn) [Compound 26, bis-{3-O-[(6-tert-butyl-2H-1-benzopyran-2-on-3-yl)-methyl]-β-D-galactopyranosy}sulfane], the Kd in assay [1] was 39 µM; in assay [2] it was above 1000 µM; in assay [3], 62 µM; in assay [4], 8.1 µM; in assay [7], 17 µM; in assay [5], above 1000 µM. In addition, the Kd in assay [6] was 25 µM.

In the case of `O=c1oc2ccc(Cl)cc2cc1COC1C(O)[C@H](S[C@@H]2OC(CO)[C@H](O)C(OCc3cc4cc(Cl)ccc4oc3=O)C2O)OC(CO)[C@@H]1O` (stereo partly drawn) [Compound 27, bis-{3-O-[(6-chloro-2H-1-benzopyran-2-on-3-yl)-methyl]-β-D-galactopyranosy}sulfane], the Kd in assay [1] is above 200 µM; in assay [2], 430 µM; in assay [3], 34 µM; in assay [4] it was 6 µM; in assay [7], 86 µM; in assay [5] it was 100 µM. Besides, in assay [6], the Kd was 7.9 µM.

In the case of `O=c1oc2ccc(F)cc2cc1CO[C@H]1[C@@H](O)[C@@H](CO)O[C@@H](S[C@@H]2O[C@H](CO)[C@H](O)[C@H](OCc3cc4cc(F)ccc4oc3=O)[C@H]2O)[C@@H]1O` [Compound 28, Bis-{3-O-[(6-fluoro-2H-1-benzopyran-2-on-3-yl)-methyl]-β-D-galactopyranosyl}sulfane], the Kd in assay [1] is 3.5 µM; in assay [2] it was 180 µM; in assay [3], 47 µM; in assay [4], 0.097 µM; in assay [7], 7.9 µM; in assay [5] it was above 1000 µM. For the same molecule, the Kd in assay [6] was 3.4 µM.

As to `O=c1oc2cc(F)c(F)cc2cc1COC1C(O)[C@H](S[C@@H]2OC(CO)[C@H](O)C(OCc3cc4cc(F)c(F)cc4oc3=O)C2O)OC(CO)[C@@H]1O` (stereo partly drawn) [Compound 29, bis-{3-O-[(6,7-difluoro-2H-1-benzopyran-2-on-3-yl)-methyl]-β-D-galactopyranosy}sulfane], the Kd in assay [1] is 3 µM; in assay [2], 44 µM; in assay [3], 19 µM; in assay [4] it was 0.11 µM; in assay [7], 2.3 µM; in assay [5], 220 µM. Further, the Kd in assay [6] was 1.6 µM.

For `O=c1oc2cccc(Cl)c2cc1CO[C@H]1[C@@H](O)[C@@H](CO)O[C@@H](S[C@@H]2O[C@H](CO)[C@H](O)[C@H](OCc3cc4c(Cl)cccc4oc3=O)[C@H]2O)[C@@H]1O` [Compound 30, bis-{3-O-[(5-chloro-2H-1-benzopyran-2-on-3-yl)-methyl]-β-D-galactopyranosyl}sulfane], the Kd in assay [1] is 54 µM; in assay [2] it was 55 µM; in assay [3], 28 µM; in assay [4], 0.17 µM; in assay [7] it was 16 µM; in assay [5], above 1000 µM. The Kd in assay [6] is 25 µM.

Take `O=c1oc2cccc(F)c2cc1CO[C@H]1[C@@H](O)[C@@H](CO)O[C@@H](S[C@@H]2O[C@H](CO)[C@H](O)[C@H](OCc3cc4c(F)cccc4oc3=O)[C@H]2O)[C@@H]1O` [Compound 31, Bis-{3-O-[(5-fluoro-2H-1-benzopyran-2-on-3-yl)-methyl]-β-D-galactopyranosyl}sulfane]: the Kd was 7 µM in assay [1]; 46 µM in assay [2]; 28 µM in assay [3]; 0.061 µM in assay [4]; 5.5 µM in assay [7]; 540 µM in assay [5]. In addition, the Kd in assay [6] is 8.7 µM.

Consider `O=c1oc2ccc(F)c(F)c2cc1CO[C@H]1[C@@H](O)[C@@H](CO)O[C@@H](S[C@@H]2O[C@H](CO)[C@H](O)[C@H](OCc3cc4c(F)c(F)ccc4oc3=O)[C@H]2O)[C@@H]1O` [Compound 32, Bis-{3-O-[(5,6-difluoro-2H-1-benzopyran-2-on-3-yl)-methyl]-β-D-galactopyranosyl}sulfane], for which the Kd in assay [1] is 1.1 µM; in assay [2], 22 µM; in assay [3], 41 µM; in assay [4], 0.032 µM; in assay [7], 1.5 µM; in assay [5], above 500 µM. Further, in assay [6], the Kd is 3.9 µM.

Take `O=c1oc2ccc(OC(F)(F)F)cc2cc1COC1C(O)[C@H](S[C@@H]2OC(CO)[C@H](O)C(OCc3cc4cc(OC(F)(F)F)ccc4oc3=O)C2O)OC(CO)[C@@H]1O` (stereo partly drawn) [Compound 33, bis-{3-O-[(6-trifluoromethoxy-2H-1-benzopyran-2-on-3-yl)-methyl]-β-D-galactopyranosy}sulfane]: the Kd in assay [1] is 29 µM; in assay [2] it was above 500 µM; in assay [3], 110 µM; in assay [4] it was 0.95 µM; in assay [7], 21 µM; in assay [5] it was above 500 µM. The Kd in assay [6] is 84 µM.

`Cc1ccc2cc(COC3C(O)[C@H](S[C@@H]4OC(CO)[C@H](O)C(OCc5cc6ccc(C)cc6oc5=O)C4O)OC(CO)[C@@H]3O)c(=O)oc2c1` (stereo partly drawn) [Compound 34, bis-{3-O-[(7-methyl-2H-1-benzopyran-2-on-3-yl)-methyl]-β-D-galactopyranosy}sulfane]: the Kd in assay [1] is above 200 µM; in assay [2] it was above 500 µM; in assay [3], above 700 µM; in assay [4], 9.4 µM; in assay [7], above 500 µM; in assay [5], above 500 µM. Moreover, the Kd in assay [6] is 200 µM.

Take `O=C(OC1C(O)[C@H](S[C@@H]2OC(CO)[C@H](O)C(OC(=O)c3ccc4ccccc4c3)C2O)OC(CO)[C@@H]1O)c1ccc2ccccc2c1` (stereo partly shown) [Compound 35, reference compound]: the Kd in assay [1] is 2.8 µM; in assay [4], 10.7 µM; in assay [6] it was 14.7 µM; in assay [8], 48 µM.

As usually defined, the Kd is the concentration at which binding is half-saturated.
